Test results as given in patent US20160287589A1, “SUBSTITUTED-IMIDAZOPYRIDAZINES” (BAYER PHARMA AKTIENGESELLSCHAFT, priority 2013, published 2016).

Experiments:
[1] = target: T1, MKNK1 (Homo sapiens, UniProt Q9BUB5, T385D); experiment: MKNK1 kinase assay (MKNK1 TR-FRET assay); assay type: biochemical; details: Table 1a; 10 μM ATP, 15 min preincubation
T1 construct: GST (N); purchased Carna Biosciences 02-145; host or cells: insect cells (baculovirus expression system)
From the text: MKNK1-inhibitory activity of compounds of the present invention was quantified employing the MKNK1 TR-FRET assay as described in the following paragraphs.
A recombinant fusion protein of Glutathione-S-Transferase (GST, N-terminally) and human full-lengt MKNK1 (amino acids 1-424 and T344D of accession number BAA 19885.1), expressed in insect cells using baculovirus expression system and purified via glutathione sepharose affinity chromatography, was purchased from Carna Biosciences (product no 02-145) and used as enzyme. As substrate for the kinase reaction the biotinylated peptide biotin-Ahx-IKKRKLTRRKSLKG (C-terminus in amide form) was used which can be purchased e.g. form the company Biosyntan (Berlin-Buch, Germany).
For the assay 50 nL of a 100 fold concentrated solution of the test compound in DMSO was pipetted into a black low volume 384 well microtiter plate (Greiner Bio-One, Frickenhausen, Germany), 2 μL of a solution of MKNK1 in aqueous assay buffer [50 mM HEPES pH 7.5, 5 mM magnesium chloride, 1.0 mM dithiothreitol, 0.005% (v/v) Nonidet-P40 (Sigma)] was added and the mixture was incubated for 15 min at 22° C. to allow pre-binding of the test compounds to the enzyme before the start of the kinase reaction. […] The concentration of MKNK1 was adjusted depending of the activity of the enzyme lot and was chosen appropriate to have the assay in the linear range, typical concentrations were in the range of […]. The reaction was stopped by the addition of 5 μL of a solution of TR-FRET detection reagents (5 nM streptavidine-XL665 [Cisbio Bioassays, Codolet, France] and 1 nM anti-ribosomal protein S6 (pSer236)-antibody from Invitrogen [#44921G] and 1 nM LANCE EU-W1024 labeled ProteinG [Perkin-Elmer, product no. AD0071]) in an aqueous EDTA-solution (100 mM EDTA, 0.1% (w/v) bovine serum albumin in 50 mM HEPES pH 7.5).
The resulting mixture was incubated for 1 h at 22° C. to allow the formation of complex between the phosphorylated biotinylated peptide and the detection reagents. Subsequently the amount of phosphorylated substrate was evaluated by measurement of the resonance energy transfer from the Eu-chelate to the streptavidine-XL. Therefore, the fluorescence emissions at 620 nm and 665 nm after excitation at 350 nm were measured in a TR-FRET reader, e.g. a Rubystar (BMG Labtechnologies, Offenburg, Germany) or a Viewlux (Perkin-Elmer). The ratio of the emissions at 665 nm and at […] was taken as the measure for the amount of phosphorylated substrate. The data were normalised (enzyme reaction without inhibitor=0% inhibition, all other assay components but no enzyme=100% inhibition).

[2] = target: T1, MKNK1; experiment: MKNK1 kinase high ATP assay (TR-FRET-based); assay type: biochemical; details: Table 2a; 2 mM ATP, 15 min preincubation
Procedure, shortened: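 TR-FRET read-out (anti-phospho-S6 Ser236 antibody, Eu/XL665) of biotin-peptide phosphorylation (0.06 μM) at high ATP (2 mM final). Enzyme was GST-MKNK1 full length, T344D, pre-bound to compound for 15 min before a 30 min reaction at 22 °C, pH 7.5. Inhibition scaled between no-inhibitor (0%) and no-enzyme (100%) wells.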

T1 sequence (Q9BUB5 1-424 isoform Q9BUB5-2 T344D): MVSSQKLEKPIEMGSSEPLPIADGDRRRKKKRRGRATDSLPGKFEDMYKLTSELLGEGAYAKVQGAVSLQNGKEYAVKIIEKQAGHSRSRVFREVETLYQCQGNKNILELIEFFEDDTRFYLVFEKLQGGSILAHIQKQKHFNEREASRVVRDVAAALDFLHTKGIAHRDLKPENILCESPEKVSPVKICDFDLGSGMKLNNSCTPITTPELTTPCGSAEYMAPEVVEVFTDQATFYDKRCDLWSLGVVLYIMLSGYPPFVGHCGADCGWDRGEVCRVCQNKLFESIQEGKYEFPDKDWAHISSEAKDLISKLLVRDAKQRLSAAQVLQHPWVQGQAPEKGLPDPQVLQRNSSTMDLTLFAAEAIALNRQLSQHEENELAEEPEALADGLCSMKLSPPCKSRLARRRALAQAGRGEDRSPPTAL

SMILES | IC50 [1] [nM] | IC50 [2] [nM]
CC(C)(C)C(=O)N1CCC[C@H]1CCOc1ccc2ncc(-c3cc4ccccc4o3)n2n1 [Example I-46, 1-[(2S)-2-(2-{[3-(1-Benzofuran-2-yl)imidazo[1,2-b]-pyridazin-6-yl]oxy}ethyl)pyrrolidin-1-yl]-2,2-dimethylpropan-1-one] | 1.2 | 1.9
Cn1cc(C(=O)N2CCC[C@H]2CCOc2ccc3ncc(-c4cc5ccccc5o4)n3n2)cn1 [Example I-48, [(2S)-2-(2-{[3-(1-Benzofuran-2-yl)imidazo[1,2-b]-pyridazin-6-yl]oxy}ethyl)pyrrolidin-1-yl](1-methyl-1H-pyrazol-4-yl)methanone] | 1.8 | 2.3
Cn1ccc(C(=O)N2CCC[C@H]2CCOc2ccc3ncc(-c4cc5ccccc5o4)n3n2)n1 [Example I-50, [(2S)-2-(2-{[3-(1-Benzofuran-2-yl)imidazo[1,2-b]-pyridazin-6-yl]oxy}ethyl)pyrrolidin-1-yl](1-methyl-1H-pyrazol-3-yl)methanone] | 2.4 | 3.2
Cc1nocc1C(=O)N1CCC[C@H]1CCOc1ccc2ncc(-c3cc4ccccc4o3)n2n1 [Example I-52, [(2S)-2-(2-{[3-(1-Benzofuran-2-yl)imidazo[1,2-b]-pyridazin-6-yl]oxy}ethyl)pyrrolidin-1-yl](3-methyl-1,2-oxazol-4-yl)methanone] | 1.7 | 3.4
O=C(C1CCCO1)N1CCC[C@H]1CCOc1ccc2ncc(-c3cc4ccccc4o3)n2n1 (stereo partly drawn) [Example I-53, [(2S)-2-(2-{[3-(1-Benzofuran-2-yl)imidazo[1,2-b]-pyridazin-6-yl]oxy}ethyl)pyrrolidin-1-yl](tetrahydrofuran-2-yl)methanone] | 2.4 | 3.5
O=C(c1ccon1)N1CCC[C@H]1CCOc1ccc2ncc(-c3cc4ccccc4o3)n2n1 [Example I-55, [(2S)-2-(2-{[3-(1-Benzofuran-2-yl)imidazo[1,2-b]-pyridazin-6-yl]oxy}ethyl)pyrrolidin-1-yl](1,2-oxazol-3-yl)methanone] | 2.1 | 3.8
O=C(c1ccsc1)N1CCC[C@H]1CCOc1ccc2ncc(-c3cc4ccccc4o3)n2n1 [Example I-57, [(2S)-2-(2-{[3-(1-Benzofuran-2-yl)imidazo[1,2-b]-pyridazin-6-yl]oxy}ethyl)pyrrolidin-1-yl](thiophen-3-yl)methanone] | 1.9 | 3.9
COCC(=O)N1CCC[C@H]1CCOc1ccc2ncc(-c3cc4ccccc4o3)n2n1 [Example I-58, 1-[(2S)-2-(2-{[3-(1-Benzofuran-2-yl)imidazo[1,2-b]-pyridazin-6-yl]oxy}ethyl)pyrrolidin-1-yl]-2-methoxyethanone] | 2.6 | 5.2
O=C(CO)N1CCC[C@H]1CCOc1ccc2ncc(-c3cc4ccccc4o3)n2n1 [Example I-59, 1-[(2S)-2-(2-{[3-(1-Benzofuran-2-yl)imidazo[1,2-b]-pyridazin-6-yl]oxy}ethyl)pyrrolidin-1-yl]-2-hydroxyethanone] | 2.8 | 5.3
O=C(c1ccc[nH]1)N1CCC[C@H]1CCOc1ccc2ncc(-c3cc4ccccc4o3)n2n1 [Example I-61, [(2S)-2-(2-{[3-(1-Benzofuran-2-yl)imidazo[1,2-b]-pyridazin-6-yl]oxy}ethyl)pyrrolidin-1-yl](1H-pyrrol-2-yl)methanone] | 2.9 | 6.7

More lines, in order of falling IC50 [1], values ahead:

IC50 [1] [nM] | IC50 [2] [nM] | SMILES
14.2 | 26.8 | O=C1CNC[C@H](COc2ccc3ncc(-c4cc5ccccc5o4)n3n2)N1 [Example I-42, (6R)-6-({[3-(1-Benzofuran-2-yl)imidazo[1,2-b]pyridazin-6yl]oxy}methyl)-piperazin-2-one]
4 | 3.8 | O=C(C1CCCC1)N1CCC[C@H]1CCOc1ccc2ncc(-c3cc4ccccc4o3)n2n1 [Example I-56, [(2S)-2-(2-{[3-(1-Benzofuran-2-yl)imidazo[1,2-b]-pyridazin-6-yl]oxy}ethyl)pyrrolidin-1-yl](cyclopentyl)-methanone]
4 | 10.1 | O=C(c1ccc(Cl)cc1)N1CCC[C@H]1CCOc1ccc2ncc(-c3cc4ccccc4o3)n2n1 [Example I-63, [(2S)-2-(2-{[3-(1-Benzofuran-2-yl)imidazo[1,2-b]-pyridazin-6-yl]oxy}ethyl)pyrrolidin-1-yl](4-chlorophenyl)methanone]
3.5 | 6.8 | O=C(c1ccccn1)N1CCC[C@H]1CCOc1ccc2ncc(-c3cc4ccccc4o3)n2n1 [Example I-62, [(2S)-2-(2-{[3-(1-Benzofuran-2-yl)imidazo[1,2-b]-pyridazin-6-yl]oxy}ethyl)pyrrolidin-1-yl](pyridin-2-yl)methanone]
2.2 | 5.4 | CC(C)CC(=O)N1CCC[C@H]1CCOc1ccc2ncc(-c3cc4ccccc4o3)n2n1 [Example I-60, 1-[(2S)-2-(2-{[3-(1-Benzofuran-2-yl)imidazo[1,2-b]-pyridazin-6-yl]oxy}ethyl)pyrrolidin-1-yl]-3-methylbutan-1-one]
2.1 | 3.2 | O=C(CC1CC1)N1CCC[C@H]1CCOc1ccc2ncc(-c3cc4ccccc4o3)n2n1 [Example I-51, 1-[(2S)-2-(2-{[3-(1-Benzofuran-2-yl)imidazo[1,2-b]-pyridazin-6-yl]oxy}ethyl)pyrrolidin-1-yl]-2-cyclopropylethanone]
2 | 3.7 | O=C(C1CCC1)N1CCC[C@H]1CCOc1ccc2ncc(-c3cc4ccccc4o3)n2n1 [Example I-54, [(2S)-2-(2-{[3-(1-Benzofuran-2-yl)imidazo[1,2-b]-pyridazin-6-yl]oxy}ethyl)pyrrolidin-1-yl](cyclobutyl)methanone]
1.6 | 2.2 | O=C(c1ccno1)N1CCC[C@H]1CCOc1ccc2ncc(-c3cc4ccccc4o3)n2n1 [Example I-47, [(2S)-2-(2-{[3-(1-Benzofuran-2-yl)imidazo[1,2-b]-pyridazin-6-yl]oxy}ethyl)pyrrolidin-1-yl](1,2-oxazol-5-yl)methanone]
1.3 | 1.8 | O=C(c1cnoc1)N1CCC[C@H]1CCOc1ccc2ncc(-c3cc4ccccc4o3)n2n1 [Example I-45, [(2S)-2-(2-{[3-(1-Benzofuran-2-yl)imidazo[1,2-b]-pyridazin-6-yl]oxy}ethyl)pyrrolidin-1-yl](1,2-oxazol-4-yl)methanone]
1.1 | 1.7 | CCC(=O)N1CCC[C@H]1CCOc1ccc2ncc(-c3cc4ccccc4o3)n2n1 [Example I-44, 1-[(2S)-2-(2-{[3-(1-Benzofuran-2-yl)imidazo[1,2-b]-pyridazin-6-yl]oxy}ethyl)pyrrolidin-1-yl]propan-1-one]
1.1 | 2.4 | O=C(c1ccco1)N1CCC[C@H]1CCOc1ccc2ncc(-c3cc4ccccc4o3)n2n1 [Example I-49, [(2S)-2-(2-{[3-(1-Benzofuran-2-yl)imidazo[1,2-b]-pyridazin-6-yl]oxy}ethyl)pyrrolidin-1-yl](furan-2-yl)methanone]
1 | 1.3 | O=C(c1cccs1)N1CCC[C@H]1CCOc1ccc2ncc(-c3cc4ccccc4o3)n2n1 [Example I-43, [(2S)-2-(2-{[3-(1-Benzofuran-2-yl)imidazo[1,2-b]pyridazin-6-yl]oxy}ethyl)pyrrolidin-1-yl](thiophen-2-yl)methanone]
